Results as given in patent publication US20260070890A1, “MODULATORS OF TAU LIQUID-LIQUID PHASE SEPARATION AND METHODS THEREOF” (JAWAHARLAL NEHRU CENTRE FOR ADVANCED SCIENTIFIC RESEARCH, priority 2023, published 2026).

Legend:
Zn induced tau LLPS = molecular target: T1, Zn induced tau LLPS (Homo sapiens, UniProt P10636); assay: DIC microscopy, inhibition of Zn induced tau LLPS; assay type: biochemical; conditions: tau 10 μM, Zn 40 μM, compound 20 μM added before Zn; Zn alone ~1.3
T1 construct: the full-length tau plasmid construct was transformed into E. coli, BL21 strain; inferred from the Ni-NTA purification; made in house; host or cells: E. coli BL21
Experimental: (§1) Liquid-liquid phase separation (LLPS) of tau was induced by molecular crowding in LLPS buffer (10 mM HEPES, 100 mM NaCl, 10% PEG 4000 and pH 7.4) and Zn.^32 Tau (10 μM) was suspended in LLPS buffer and added Zn (40 μM) incubate for 10 min to induce LLPS. For inhibition studies the tau in LLPS buffer was treated with small molecules (20 μM) before addition of Zn and for control same volume of vehicle (DMSO) was added. Dissolution samples were prepared by induction of LLPS for 10 min using Zn and followed by addition of small molecules and further incubation of 15 min. The samples were drop-cast (10 μL) on clean glass slides, mount with coverslip and immediately imaged in Olympus FLUOVIEW 3000 microscope in differential interface contrast (DIC) mode with 63× oil immersion objective. The images were acquired in multiple areas and planes to confirm the LLPS formation and its modulation by small molecules. Image analysis was performed by using ImageJ software, plotted normalised droplet size against control and analysed by GraphPad Prism.
(§2) The strong binding interaction of small molecules with Zn and tau encouraged us to evaluate them for modulation of Zn indued LLPS of tau. The ability of small molecules to inhibit tau LLPS and formation of droplets were studied by differential interface contrast (DIC) microscopy (FIG. 4). In the presence of Zn, tau readily undergoes LLPS and formed liquid like droplets within 10 min, as evident from the observed fusion droplets (FIG. 4A and inset). […] The inhibitory effect is in the order of 1c followed by 1b and 1a, which agrees with Zn and tau binding ability of small molecules. The LLPS of tau is through transient weak interactions and we believe that the small molecules with strong multivalent interactions with tau and Zn (chelation) potentially dissolve the phase separated droplets. […] The absorption spectra of 1c in the presence of tau and Zn (independently) and together was recorded. […]

[1] = Isothermal titration calorimetry of small molecule-Zn interaction; assay type: binding; conditions: for ΔG of binding to Zn, ITC / ΔH (enthalpy) of binding to Zn, ITC / −TΔS (entropy) of binding to Zn, ITC: 298 K; for ΔG / ΔH / −TΔS: Table 1, with Zn
Experimental: ITC measurements were performed using a Malvern MicroCal-PEAQ ITC machine. Solutions of small molecules (compounds 1a, 1b and 1c) of the present disclosure and ZnCl2 were prepared in 100% DMSO. A revolving syringe was used to inject 26 consecutive 1.5 μL aliquots of Zn^2+ into the small molecules solution to ensure a continual mixing. The ITC cell reference power and temperature were set at […] and 25° C., respectively. To guarantee complete equilibration before the next injection, an interval of 150 s was maintained between subsequent measurements. Obtained isotherms were corrected by the subtraction of heat of dilution (buffer and small molecules). By using a single site binding model in the MicroCal PEAQ-ITC analysis software, nonlinear least squares fitting of the binding isotherms was carried out to estimate the thermodynamic parameters and dissociation constant (Kd).
The thermodynamic parameters of the interactions between small molecules and Zn^2+ were determined by ITC study. ZnCl2 solution in the injection syringe was titrated into compound solution in the sample cell. The heat change was measured and plotted as a function of the molar ratio of small molecules and Zn^2+. […] Right panel depicts the integrated binding isotherms as a function of the binary complex at 298 K. Fitting was obtained from the data points with one set of the binding site model). […] The Kd values determined from ITC validate the results obtained from other binding studies discussed vide supra (lower Kd and higher KSV). Both endothermic and exothermic peaks were observed upon binding of 1c and Zn resulting in a net negative ΔH value, and the data was fitted to exothermic one site binding model. For a reaction to be spontaneous, it must be favored by at least one of the factors, enthalpy or entropy.

[2] = molecular target: T2, Zn induced tau LLPS condensates (Homo sapiens, UniProt P10636); assay: DIC microscopy, dissolution of phase separated tau condensates; assay type: biochemical; conditions: LLPS induced 10 min with Zn, then compound 15 min; Zn alone 2.26
T2 construct: the full-length tau plasmid construct was transformed into E. coli, BL21 strain; inferred from the Ni-NTA purification; made in house; host or cells: E. coli BL21
Experimental: as §1, §2

tau protein = molecular target: T3, tau protein (Homo sapiens, UniProt P10636); assay: Tau intrinsic fluorescence quenching assay; assay type: binding; conditions: tau 5 μM, compound 250 nM to 25 μM; for Kd: PBS pH 7.4, read-out: One site binding saturation fit Kd with tau
T3 construct: the full-length tau plasmid construct was transformed into E. coli, BL21 strain; inferred from the Ni-NTA purification; made in house; host or cells: E. coli BL21
Experimental: Tau protein was expressed and purified from E. coli as per known procedures. Briefly, the full-length tau plasmid construct was transformed into E. coli, BL21 strain and cultured in LB broth containing ampicillin ([…]) and chloramphenicol (50 μM) at 37° C. with continuous shaking at 180 rpm overnight. Then 1% of primary culture was transferred to 1 L of LB broth with antibiotics and incubated until it reaches OD of 0.6. The culture was induced with 1 mM IPTG and further cultured for 4 h. Cells were pelleted by centrifugation (7000 rpm) at 4° C. and resuspended in 50 mM phosphate buffer (0.3 M NaCl, 5 mM imidazole and 1 mM of PMSF, pH 8) and boiled to precipitate unwanted proteins for 10-15 min with intermittent agitation. The supernatant containing tau protein was collected and further purified by Ni-NTA affinity column chromatography. The purified tau protein was quantified by Bradford assay, characterised by SDS-PAGE and stored at −80° C. until further use.
Tau was dissolved in PBS buffer pH 7.4 to make 5 μM and titrated with small molecules from 250 nM to 25 μM concentration and fluorescence spectra was recorded by exiting at 274 nm. The emission spectra were plotted and analysed using Origin (Pro), Version 2022 and GraphPad Prism 9.4.0, fitted with one site binding saturation equation to find Kd. Further fluorescence quenching was fitted with Stern-Volmer equation to determine KSV.
The binding of small molecules with tau protein was monitored using tau intrinsic fluorescence spectral changes. […] The change in fluorescence intensity was fitted with one site binding saturation model to determine the Kd values. […] The KSV values were obtained from the Stern-Volmer equation to further quantify the extent of binding. […] This further emphasized the significance of the skeletal template of the modulators for tau interaction, rather than individual substituted aromatic amino acids.

[3] = Steady state fluorescence Zn titration (Stern-Volmer fit); assay type: binding; conditions: for Stern-Volmer binding constant (KSV): Table 1, with Zn, factor 10^4; for Stern-Volmer constant KSV with Zn^2+: compound 20 μM, Zn^2+ 2.5 to 40 μM, emission 530 nm
Experimental: The metal chelation ability of the compounds were assessed by UV-Visible absorbance and fluorescence spectroscopy by metal titration experiments. The small molecules were dissolved in HEPES buffer to make concentration of 20 μM and the metal ion (Zn^2+) was titrated with increasing concentration from 2.5 μM to 40 μM with 2 min of incubation between each addition. The change in absorbance and fluorescence spectra of compound was recorded and analysed for metal-small molecules interaction. The data was plotted in Origin (Pro), Version 2022 and analysed for determination of dissociation constant. The absorbance values were fitted using Benesi-Hildebrand equation to elucidate the binding constant of metals with small molecules.
where, KB is the binding or association constant, and A0 and Aα represent the peak absorbance of small molecules in the absence and presence of the highest concentration of metal ion (40 μM). The reciprocal of KB was taken as the dissociation constant, Kd. The change in fluorescence was fitted using Stern-Volmer equation to determine KSV: […]
where, F0 and F are the fluorescence intensities of small molecules in the absence and presence of metal ion, respectively. KSV is the Stern-Volmer quenching constant and [Q] is the concentration of quencher/enhancer (metal ion in this case).
Fluorescence spectroscopy is a reliable method to probe host-probe interactions, wherein the change in wavelength or intensity of emission spectrum is indicative of the strength of complexation. […] The classical Stern-Volmer equation was used to quantify the quenching and measure the Stern-Volmer constant, KSV wherein a higher value of KSV implies ability of the compound to form strong complexation with the host (Zn^2+). […] Due to the good binding affinity of the small molecules towards Zn, the designed small molecules were anticipated to chelate and interfere tau-Zn interaction.

tau and Zn = molecular target: T4, tau and Zn (Homo sapiens, UniProt P10636); assay: UV-Visible spectroscopy, preferential binding among tau and Zn; conditions: absorption spectra with tau, Zn and both
T4 construct: the full-length tau plasmid construct was transformed into E. coli, BL21 strain; inferred from the Ni-NTA purification; made in house; host or cells: E. coli BL21
Experimental: as §2, with “droplets. To evaluate the reversal effect of small molecules on phase separated droplets, tau LLPS was induced (10 min) and treated with small molecules for 15 min followed by visualization by DIC imaging. […] The droplet size was reduced to less than control in case of 1c treated samples (˜0.66-fold) indicating its ability to inhibit Zn induced tau LLPS. The modulatory effect of 1c prompted to look for its preferential interaction among tau and Zn.” for “droplets.”

T3 sequence (P10636 1-441 isoform P10636-8): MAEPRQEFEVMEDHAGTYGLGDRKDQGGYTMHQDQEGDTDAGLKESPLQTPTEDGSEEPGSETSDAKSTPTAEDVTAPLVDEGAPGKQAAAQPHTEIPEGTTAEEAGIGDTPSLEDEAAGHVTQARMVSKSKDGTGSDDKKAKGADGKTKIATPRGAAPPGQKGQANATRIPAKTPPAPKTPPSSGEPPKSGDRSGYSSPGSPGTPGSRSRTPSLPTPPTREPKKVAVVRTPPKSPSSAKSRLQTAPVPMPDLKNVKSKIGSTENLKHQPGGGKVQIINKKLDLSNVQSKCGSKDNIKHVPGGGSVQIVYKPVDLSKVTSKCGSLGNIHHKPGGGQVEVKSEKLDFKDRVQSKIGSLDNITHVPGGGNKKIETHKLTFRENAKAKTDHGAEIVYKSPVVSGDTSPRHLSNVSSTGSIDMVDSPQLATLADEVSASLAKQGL
T2 sequence (P10636 1-441 isoform P10636-8): as above
T1 sequence (P10636 1-441 isoform P10636-8): as above
T4 sequence (P10636 1-441 isoform P10636-8): as above

Compound	droplet size (normalized to control), inhibition of LLPS (Zn induced tau LLPS)	ΔG of binding to Zn, ITC [1]	ΔH (enthalpy) of binding to Zn, ITC ([1]; unit not given)	−TΔS (entropy) of binding to Zn, ITC ([1]; unit not given)	ΔG ([1]; unit not given)	ΔH ([1]; unit not given)	−TΔS ([1]; unit not given)	droplet size (normalized to control), dissolution of condensates [2]	Stern-Volmer KSV with tau (tau protein)	Kd (tau protein)	Stern-Volmer binding constant (KSV) [3]	Stern-Volmer constant KSV with Zn^2+ [3]	ΔH (enthalpy) of binding to Zn, ITC [1]	−TΔS (entropy) of binding to Zn, ITC [1]	preferential interaction among tau and Zn (tau and Zn)
O=C1N[C@@H](Cc2ccccc2)C(=O)N[C@H]1CCCCN1C(=O)c2cccc3c(N(Cc4ccccn4)Cc4ccccn4)ccc(c23)C1=O [Compound 1a, 2-(4-((2S,5S)-5-benzyl-3,6-dioxopiperazin-2-yl)butyl)-6-(bis(pyridin-2-ylmethyl)amino)-1H-benzo[de]isoquinoline-1,3(2H)-dione]	~1.19 fold	-3.48 kcal/mol	−13.1±0.13	9.59	−3.48	−13.1	9.59	~1.1 fold	190000 M⁻¹	2.88 ± 0.51 µM	0.06 × × 10^4	0.06×10^4	–	–	–
O=C1N[C@@H](Cc2ccc(O)cc2)C(=O)N[C@H]1CCCCN1C(=O)c2cccc3c(N(Cc4ccccn4)Cc4ccccn4)ccc(c23)C1=O [Compound 1b, 6-(bis(pyridin-2-ylmethyl)amino)-2-(4-((2S,5S)-5-(4-hydroxybenzyl)-3,6-dioxopiperazin-2-yl)butyl)-1H-benzo[de]isoquinoline-1,3(2H)-dione]	~1.12 fold	-5.78 kcal/mol	–	–	−5.78	−0.551	−5.23	~1.6 fold	160000 M⁻¹	1.74 ± 0.17 µM	1.7 × × 10^4	1.7×10^4	-0.551 ± 0.056 kcal/mol	-5.23 kcal/mol	–
O=C1N[C@@H](Cc2c[nH]c3ccccc23)C(=O)N[C@H]1CCCCN1C(=O)c2cccc3c(N(Cc4ccccn4)Cc4ccccn4)ccc(c23)C1=O [Compound 1c, 2-(4-((2S,5S)-5-((1H-indol-3-yl)methyl)-3,6-dioxopiperazin-2-yl)butyl)-6-(bis(pyridin-2-ylmethyl)amino)-1H-benzo[de]isoquinoline-1,3(2H)-dione]	~1 fold	-6.45 kcal/mol	–	–	−6.45	−0.693	−5.75	~0.66 fold	150000 M⁻¹	3.95 ± 0.32 µM	1.7 × × 10^4	1.7×10^4	-0.698 ± 0.223 kcal/mol	-5.75 kcal/mol	preferential interaction of 1c with tau over Zn
